The test concerns the target T1, human Eya2 Eya Domain (ED) (Homo sapiens, UniProt O00167).
T1 construct: a highly conserved C-terminal Eya domain (ED); made in house; host or cells: E. coli
T1 sequence (O00167 253-538 limits assumed): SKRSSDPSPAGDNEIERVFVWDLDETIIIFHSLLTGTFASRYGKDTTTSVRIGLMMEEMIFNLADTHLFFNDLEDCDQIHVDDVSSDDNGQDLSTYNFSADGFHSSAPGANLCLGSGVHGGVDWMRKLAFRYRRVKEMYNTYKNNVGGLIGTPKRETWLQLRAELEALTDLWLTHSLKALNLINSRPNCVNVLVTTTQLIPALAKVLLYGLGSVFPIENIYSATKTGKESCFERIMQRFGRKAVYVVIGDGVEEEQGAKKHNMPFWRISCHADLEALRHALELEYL
Put plainly: Inhibition of the phosphatase activity of Eya2 Eya Domain (ED) by known phosphatase inhibitors. The test is classed as biochemical. The note with it: for IC50: human Eya2 ED, FIG. 20.

Setting [1] is: at the concentrations that typically completely inhibit their cognate phosphatases.

Like-named read-outs stand apart in the source and are kept apart here.

The record followed here is patent publication US20110038791A1, “METHODS FOR INHIBITING SIX1 AND EYA PROTEINS” (priority 2008, published 2011).

For the compound `c1cnc2c(c1)ccc1cccnc12` [(1, 10)-phenanthroline], the “effect on ED phosphatase activity” value under setting [1] is given as “no effect”.

Take cyclosporine A: the “effect on ED phosphatase activity” value is “no effect”. Regarding `C=C1[C@@H](O)[C@@H]2O[C@]3(CC[C@H](/C=C/[C@@H](C)[C@@H]4CC(C)=C[C@@]5(O[C@H](C[C@@](C)(O)C(=O)O)CC[C@H]5O)O4)O3)CC[C@H]2O[C@@H]1[C@@H](O)C[C@H](C)[C@H]1O[C@@]2(CCCCO2)CC[C@H]1C` [Okadaic acid], the “effect on ED phosphatase activity” value is “no effect”.

On to `O=P(O)(O)OC(CO)CO` [β-glycerophosphate], for which inhibition was half-maximal at 8.2 ± 2.1 mM (IC50). As to `N[C@@H](Cc1ccccc1)C(=O)O` [L-phenylalanine], the “effect on ED phosphatase activity” value under setting [1] is listed as “no effect”. In turn, `[Na+].[Na+].[O]=[Mo](=[O])([O-])[O-]` [Na2MoO4] yielded an IC50 of 11.3 ± 1.6 mM. The compound `[Na+].[Na+].[Na+].[O]=[V]([O-])([O-])[O-]` [Na3VO4] displayed an IC50 of 1.8 ± 0.2 mM.

Broadly, the IC50 is the point on the concentration scale where inhibition reaches its midpoint. Low values mean greater potency in that assay, high ones weaker potency in that assay.
